The source of these data is patent US20020015943A1, “Assays, methods and means relating to the modulation of levels of nuclear beta-catenin” (priority 2000, published 2002).

For assay [1], the system named is nuclear export receptor CRM1. The assay is described as follows: Subcellular distribution of GFP-tagged APC constructs in transfected COS cells with or without LMB. Format: cell-based, monkey. The text has this: All constructs were inserted into pEGFP-C2 (Clontech), producing N-terminally tagged GFP fusions. Each construct (except HC and HCala, see below) also contains a triple hemagglutinin (HA) tag inserted between GFP and APC coding sequence. In coreNES, the following NES-encoding sequences were inserted between the HA tag and the ARDcore (first of a pair human, second Drosophila, bold NES residues were substituted to alanine in coreNESala; in coreNEScon, underlined conserved non-NES residues were substituted by alanine): 203, […], […]; 20R4, […], […]; 20R7, […]. coreNESmin from Drosophila 20R4 contains […] (bold residues substituted by alanine in the mutant version). […] For the complementation assays in SW480 cells, a central fragment from human APC (codons 1379-2080) was N-terminally tagged with GFP (HC, see above). The above described alanine substitutions of 20R-linked NESs were introduced into HC, and into GFP-E-APC, using the Quik-Change Site-Directed Mutagenesis Kit (Stratagene), HCala1 and HCala2 are partial mutants retaining one and two NESs, respectively (see text) All constructs were verified by sequencing.
Monkey COS cells were grown in DMEM medium (supplemented with 10% fetal calf serum), and transfected with FuGENE™ (Morin, P. J. et al. Science 275, 1787-1790 (1997)) Transfection Reagent (Roche). SW480 and HCT116 cells were grown in Leibovitz's L15 medium (with 10% fetal calf serum), and transfected with Lipofectamine (Life Technologies Inc.). 0.4 or […] DNA was used per transfection of COS or SW480 cells (in 35 mm culture wells), respectively. Transfected cells were harvested for analysis after 24-48 hours. For staining, cells were either fixed with chilled methanol for 10 min. at −20° C. or fixed with 4% paraformaldehyde (freshly prepared, in phosphate buffered saline) for 30 min. Cells were then permeabilised with 0.1% Triton X-100 and blocked with bovine serum albumin for 15 min. each, and subsequently incubated at room temperature with primary and secondary antibody for 60 and 30 min, respectively. COS cells were treated with LMB (50 ng/ml)) for 1-2 hours 24 hours after transfection, SW480 cells for 2 hours 48 hours after transfection.
(§1) Qualitative analysis was thus backed up by quantitative evaluation of 10-20 randomly chosen fields in which each individual healthy cell was scored. Ratios of nuclear to cytoplasmic fluorescence levels were determined.

Assay [2] concerns the target T1, nuclear export receptor CRM1 (Drosophila melanogaster, UniProt Q9TVM2).
T1 construct: 0-6 hours old embryos were permeabilised in octane; from tissue; host or cells: octane-permeabilised Drosophila embryos, 0-6 hours old
The experiment in a line: Endogenous E-APC localisation in LMB-treated permeabilised Drosophila embryos. The class given is cell-based. As to conditions: 80 ng/ml LMB 60 min. The protocol:
Drosophila embryos were fixed and stained as described (Yu, X. et al. Nature Cell Biol 3, 144-151 (1999)). For drug treatments, 0-6 hours old embryos were permeabilised in octane (Lantz, V. A. et al. Mech Dev 85, 111-122 (1999)) and subsequently incubated for 60 min. with 80 ng/ml LMB. Controls were octane-permeabilised and incubated in solvent alone (<1% ethanol).
The following antibodies were used: rabbit anti-E-APC (1:10′000) (Yu, X. et al. Nature Cell Biol 3, 144-151 (1999), rabbit anti-APC (1:700) (Näthke, I. S. et al. J Cell Biol 134, 165-179 (1996)), mouse anti-lamin (1:150), mouse anti-β-catenin (1:500; Transduction Laboratories), Alexa Red and Green (1:500; Molecular Probes). images were collected on an MRC 1024 confocal microscope.

Assay [3] deals with nuclear β-catenin in SW480 cells. The assay is described as follows: Complementation assay in transfected SW480 cells, immunofluorescence of APC construct and β-catenin. Format: cell-based.
Source text: All constructs were inserted into pEGFP-C2 (Clontech), producing N-terminally tagged GFP fusions. Each construct (except HC and HCala, see below) also contains a triple hemagglutinin (HA) tag inserted between GFP and APC coding sequence. In coreNES, the following NES-encoding sequences were inserted between the HA tag and the ARDcore (first of a pair human, second Drosophila, bold NES residues were substituted to alanine in coreNESala; in coreNEScon, underlined conserved non-NES residues were substituted by alanine): 203, […], […]; 20R4, […], […]; 20R7, […]. coreNESmin from Drosophila 20R4 contains ISGLSHLTVGSA (bold residues substituted by alanine in the mutant version). We also fused the putative NES from Drosophila pseudoR20 (FIG. 1, arrowhead) to ARDcore, but this NES candidate ([…]) was non-functional. For the complementation assays in SW480 cells, a central fragment from human APC (codons 1379-2080) was N-terminally tagged with GFP (HC, see above). The above described alanine substitutions of 20R-linked NESs were introduced into HC, and into GFP-E-APC, using the Quik-Change Site-Directed Mutagenesis Kit (Stratagene), HCala1 and HCala2 are partial mutants retaining one and two NESs, respectively (see text) All constructs were verified by sequencing.
Monkey COS cells were grown in DMEM medium (supplemented with 10% fetal calf serum), and transfected with FuGENE™ (Morin, P. J. et al. Science 275, 1787-1790 (1997)) Transfection Reagent (Roche). SW480 and HCT116 cells were grown in Leibovitz's L15 medium (with 10% fetal calf serum), and transfected with Lipofectamine (Life Technologies Inc.). 0.4 or […] DNA was used per transfection of COS or SW480 cells (in 35 mm culture wells), respectively. Transfected cells were harvested for analysis after 24-48 hours. […]
as §1

For the next assay, the system named is nuclear β-catenin. The experiment in a line: TOPFLASH/FOPFLASH luciferase transcriptional read-out of nuclear β-catenin in SW480 cells. The class given is cell-based. As to conditions: TOPFLASH, versus mock-transfected. Here is the method:
pTOPFLASH and pFOPFLASH were used for transcriptional read-out assays of nuclear β-catenin in SW480 cells (Korinek, V. et al. Science 275, 1784-1787 (1997)). pRL-CMV served as an internal control, and luciferase assays were performed with the Dual Luciferase™ Reporter Assay System (Promega). Relative luciferase activities (x100) were obtained by dividing TOP- or FOP-FLASH values by pRL-CMV values (FIG. 3). TOP-FLASH values reflect averages of 2-4 independent transfections, their standard deviations are given.

[4] abbreviates: HC-transfected SW480 cells, LMB 2 hours.

Entries after “also recorded” stand apart in the source; their conditions may differ.

T1 sequence (Q9TVM2 whole entry): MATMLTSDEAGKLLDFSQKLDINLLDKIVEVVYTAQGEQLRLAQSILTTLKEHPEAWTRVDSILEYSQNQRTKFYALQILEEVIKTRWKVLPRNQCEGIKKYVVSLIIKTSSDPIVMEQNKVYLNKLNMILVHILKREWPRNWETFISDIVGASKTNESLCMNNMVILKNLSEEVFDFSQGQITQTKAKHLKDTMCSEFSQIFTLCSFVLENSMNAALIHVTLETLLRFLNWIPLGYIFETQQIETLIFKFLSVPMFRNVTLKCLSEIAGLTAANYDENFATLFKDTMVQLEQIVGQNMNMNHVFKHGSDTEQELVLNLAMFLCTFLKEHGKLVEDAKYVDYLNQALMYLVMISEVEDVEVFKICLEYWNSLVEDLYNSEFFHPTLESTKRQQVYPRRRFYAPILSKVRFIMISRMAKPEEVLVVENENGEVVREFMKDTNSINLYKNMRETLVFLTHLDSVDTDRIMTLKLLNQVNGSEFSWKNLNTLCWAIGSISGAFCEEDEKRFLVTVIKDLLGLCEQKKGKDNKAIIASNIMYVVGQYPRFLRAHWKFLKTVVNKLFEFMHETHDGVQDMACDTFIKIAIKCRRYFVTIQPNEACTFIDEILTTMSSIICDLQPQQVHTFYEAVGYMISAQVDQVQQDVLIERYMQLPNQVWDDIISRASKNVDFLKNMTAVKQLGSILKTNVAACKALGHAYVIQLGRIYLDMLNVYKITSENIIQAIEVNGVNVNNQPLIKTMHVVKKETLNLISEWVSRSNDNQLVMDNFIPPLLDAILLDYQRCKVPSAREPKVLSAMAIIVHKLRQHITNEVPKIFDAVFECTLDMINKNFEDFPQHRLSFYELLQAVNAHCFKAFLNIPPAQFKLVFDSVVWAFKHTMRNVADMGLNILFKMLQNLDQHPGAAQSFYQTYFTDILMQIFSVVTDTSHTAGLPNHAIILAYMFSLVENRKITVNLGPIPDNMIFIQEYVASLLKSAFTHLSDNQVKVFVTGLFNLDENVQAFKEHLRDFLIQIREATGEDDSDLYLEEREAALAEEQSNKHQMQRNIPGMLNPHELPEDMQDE

On to `CCC(=C/[C@H](C)C/C=C/C(C)=C/[C@@H](C)C(=O)[C@@H](C)[C@H](O)[C@@H](C)C/C(C)=C/C(=O)O)/C=C/[C@@H]1OC(=O)C=C[C@@H]1C` [LMB, leptomycin B], for which, in assay [1] (LMB 50 ng/ml 1-2 hours), the “effect on nuclear exclusion / distribution of Cterm1 and Cterm2” value was “blocked; also recorded: even distribution of Cterm1 and 2 throughout cytoplasm and nucleus”; the “effect on nuclear exclusion of coreNES fusions” value was “abolishes the nuclear exclusion of all coreNES fusions”; the “effect on subcellular distribution of ARDcore and coreNESala mutants” value is given as “neither affected”. For the same molecule, in assay [1] (LMB treatment (not shown)), the “effect on distribution of full-length E-APC” value was “accumulated to some extent in the nucleus”. For the same molecule, the “effect on localisation of endogenous E-APC” value in assay [2] was “E-APC was found to accumulate in the nuclei; also recorded: endogenous E-APC is retained efficiently in nuclei”. Besides, in assay [3] (setting [4]), the “effect on localisation of HC” value is “caused nuclear retention of HC” and the “effect on reduction of nuclear β-catenin by HC” value is given as “attenuated the reduction of nuclear β-catenin by HC”.

B1: HC: central fragment from human APC (codons 1379-2080) N-terminally tagged with GFP, expressed by transfection (protein, UniProt P25054 1379-2080, looked up, fragment)
chain: ETPLMFSRCTSVSSLDSFESRSIASSVQSEPCSGMVSGIISPSDLPDSPGQTMPPSRSKTPPPPPQTAQTKREVPKNKAPTAEKRESGPKQAAVNAAVQRVQVLPDADTLLHFATESTPDGFSCSSSLSALSLDEPFIQKDVELRIMPPVQENDNGNETESEQPKESNENQEKEAEKTIDSEKDLLDDSDDDDIEILEECIISAMPTKSSRKAKKPAQTASKLPPPVARKPSQLPVYKLLPSQNRLQPQKHVSFTPGDDMPRVYCVEGTPINFSTATSLSDLTIESPPNELAAGEGVRGGAQSGEFEKRDTIPTEGRSTDEAQGGKTSSVTIPELDDNKAEEGDILAECINSAMPKGKSHKPFRVKKIMDQVQQASASSSAPNKNQLDGKKKKPTSPVKPIPQNTEYRTRVRKNADSKNNLNAERVFSDNKDSKKQNLKNNSKVFNDKLPNNEDRVRGSFAFDSPHHYTPIEGTPYCFSRNDSLSSLDFDDDDVDLSREKAELRKAKENKESEAKVTSHTELTSNQQSANKTQAIAKQPINRGQPKPILQKQSTFPQSSKDIPDRGAATDEKLQNFAIENTPVCFSHNSSLSSLSDIDQENNNKENEPIKETEPPDSQGEPSKPQASGYAPKSFHVEDTPVCFSRNSSLSSLSIDSEDDLLQECISSAMPKKKKPSRLKGDNEKHSPRNMGGILGEDLTLDL
modifications: N-terminal GFP tag
notes: central fragment from human APC (codons 1379-2080) N-terminally tagged with GFP, expressed by transfection
B1: in assay [3] (transfected SW480 cells, immunofluorescence), the “reduction of nuclear β-catenin by transfected construct” value is “strongly reduced nuclear β-catenin”. Moreover, the “reduction of luciferase activity (transcriptional activity of nuclear β-catenin)” value in the assay on nuclear β-catenin is recorded as “much reduced”.
